The source of these data is patent US20190127313A1, “ANTIMICROBIAL AGENTS” (THE UNIVERSITY OF WARWICK, priority 2016, published 2019).

In brackets after ≈: the same amount, converted by molar mass.

The subject of data set [1] is multidrug-resistant A. baumannii strains. The experiment in a line: MIC against multidrug-resistant A. baumannii strains. It counts as cell-based. Particulars: Acinetobacter baumannii. As for the experimental part: Minimal inhibitory concentrations (MICs) were determined by the CLSI broth microdilution method. Briefly, representative members of the ESKAPE panel of pathogens were grown overnight in Mueller-Hinton (MH) broth at 30° C. Each organism was diluted to a final concentration of 5×10^5 […] using McFarland turbidity standards. Concentrations of vibroxin followed twofold dilutions starting at 32 μg/mL. Assays were incubated for 18h at 30° C.

Data set [2] can be described thus: Alkaline hydrolysis of the ester linkage, LC-MS analysis. It counts as physicochemical. Particulars: 0.4M KOH, 37° C., 4h. As for the experimental part:
The relative stereochemistry of the dihydroxycyclohexane carboxylic acid (DHCCA) moiety in vibroxin was determined by hydrolyzing the ester linkage in vibroxin under basic conditions. […] The same was not true for the corresponding portion of enacyloxin, which had degraded. […] The alkaline hydrolysis reaction was carried out by combining 15 μl of a 5 mg/ml solution of vibroxin/enacyloxin in methanol with 185 μl 0.4M KOH. Following incubation at 37° C. for 4h, the mixture was acidified (<pH 4) with 35% HCl. The samples were analysed by UHPLC-ESI-QTOF-MS analysis using a Dionex UltiMate 3000 RS UHPLC connected to a Zorbax Eclipse Plus column (C18, 100×2.1 mm, 1.8 μm) coupled to a Bruker MaXis IMPACT mass spectrometer. The mass spectrometer was operated in positive ion mode with a scan range of 50-3000 m/z.

In data set [3] the test system is Acinetobacter baumannii AB5075. The data set is described as follows: MIC/MBC by CLSI broth microdilution, ESKAPE panel. It counts as cell-based. As for the experimental part:
(§1) Minimal inhibitory concentrations (MICs) were determined by the CLSI broth microdilution method. Briefly, representative members of the […] panel of pathogens were grown overnight in Mueller-Hinton (MH) broth at 30° C. Each organism was diluted to a final concentration of 5×10^5 […] using McFarland turbidity standards. Concentrations of vibroxin followed twofold dilutions starting at 32 μg/mL. Assays were incubated for 18h at 30° C. […] Cell suspensions without visible growth were then plated out on LB agar plates to determine the minimal bactericidal concentration (MBC). The MBC was set as the lowest concentration required to kill 99.9% of the originally inoculated 5.10^5 CFU/ml. All MIC and MBC determinations were performed in triplicate.
In general terms: Dilution methods test growth across graded concentrations, often in twofold steps.

The subject of data set [4] is Acinetobacter baumannii ATCC17978. The experiment in a line: MIC/MBC by CLSI broth microdilution, ESKAPE panel. It counts as cell-based. As for the experimental part: as §1
Data set [5] relates to Acinetobacter baumannii AYE. The experiment in a line: MIC/MBC by CLSI broth microdilution, ESKAPE panel. It counts as cell-based. As for the experimental part:
as §1

Data set [6] deals with Acinetobacter baumannii DSM25645. The experiment in a line: MIC/MBC by CLSI broth microdilution, ESKAPE panel. It counts as cell-based. As for the experimental part:
as §1

Data set [7] concerns Acinetobacter baumannii S1. The experiment in a line: MIC/MBC by CLSI broth microdilution, ESKAPE panel. It counts as cell-based. As for the experimental part:
as §1

Data set [8] has as its system Enterobacter cloacae DSM16690. The experiment in a line: MIC by CLSI broth microdilution, ESKAPE panel. It counts as cell-based. Particulars: MH broth, 18h at 30° C. As for the experimental part: as §1
In data set [9] the test system is Enterococcus faecium DSM25390. The data set is described as follows: MIC by CLSI broth microdilution, ESKAPE panel. It counts as cell-based. Particulars: MH broth, 18h at 30° C. As for the experimental part: as §1
The test system of data set [10] is Klebsiella pneumoniae DSM26371. The experiment in a line: MIC by CLSI broth microdilution, ESKAPE panel. It counts as cell-based. Particulars: MH broth, 18h at 30° C. As for the experimental part:
as §1

The subject of data set [11] is Pseudomonas aeruginosa DSM29239. The experiment in a line: MIC by CLSI broth microdilution, ESKAPE panel. It counts as cell-based. The conditions noted are these: MH broth, 18h at 30° C. As for the experimental part: as §1
For data set [12], the system named is Staphylococcus aureus DSM21979. The data set is described as follows: MIC by CLSI broth microdilution, ESKAPE panel. It counts as cell-based. The conditions noted are these: MH broth, 18h at 30° C. As for the experimental part:
as §1

The subject of data set [13] is A2780 human ovarian cancer cells. The experiment in a line: Cytotoxicity, SRB assay, A2780 cells. It counts as cell-based. Particulars: 24 h exposure, 72 h recovery. As for the experimental part: The cells were obtained from the European Collection of Animal Cell Culture and grown as single monolayers in Roswell Park Memorial Institute medium (RPMI-1640) supplemented with 10% (v/v) fetal calf serum, 1% (v/v) 2 mM L-glutamine and 1% (v/v) penicillin (10 k units/mL)/streptomycin (10 mg/mL). Cells were kept at 310 K in a humidified atmosphere containing 5% CO2 and maintenance passages were done at ca. 80% confluency.
For cytotoxicity measurements, 96-well plates were used to seed 5000 A2780 cells per well. These were left to pre-incubate in drug-free media at 310 K for 48 h before adding various concentrations of vibroxin. A stock solution of vibroxin was prepared in 5% v/v DMSO and 95% v/v cell culture medium. Then, serial dilutions with culture medium were carried out to achieve working concentrations. […] The percentage of viable cells resulting from exposure to vibroxin was determined by measuring the absorbance due to soluble sulforohodamine relative to an untreated control. The absorbance measurements were carried out using a BioRad iMark microplate reader with a 470 nm filter. Mean percentage cell viability values+/−1 standard deviation were calculated from duplicates of triplicates in two independent sets of experiments.
(Sulforhodamine B stains cellular protein and so reports cell mass.)

Data set [14] deals with A. baumannii strains. The conditions noted are these: see Furukawa et al. 2007; cited from earlier work.
Where [15] appears, read: lowest concentration required to kill 99.9%.

Regarding `CC/C=C/[C@@H](OC(N)=O)[C@@H](Cl)[C@H](O)CC(=O)[C@@H](O)[C@H](O)C(C)/C(Cl)=C/C=C/C=C(C)/C=C/C=C/C(=O)O[C@@H]1CC(C(=O)O)CC[C@@H]1O` (stereo partly shown) [enacyloxin, enacyloxin IIa, reference compound], in data set [1], the minimal inhibitory concentration (MIC) amounted to 2 µg/mL (≈ 2.85 µM). Besides, in data set [2], the “polyketide chain resulting from alkaline hydrolysis of the ester linkage, detection by LC-MS” value is on record as “had degraded”.
Regarding `CC(/C=C/C=C/C(=O)OC1CC(C(=O)O)CCC1O)=C\C=C\C=C(/Cl)C(C)C(O)C(O)C(O)CC(O)/C=C/C=C/C(C)C` (stereo not shown) [vibroxin], the MIC in [3] (MH broth, 18h at 30° C.) was 2 µg/mL (≈ 3.21 µM); in data set [4] (MH broth, 18h at 30° C.), 2 µg/mL (≈ 3.21 µM); in [5] (MH broth, 18h at 30° C.) it was 2 µg/mL (≈ 3.21 µM); in data set [6] (MH broth, 18h at 30° C.) it was 2 µg/mL (≈ 3.21 µM); in data set [7] (MH broth, 18h at 30° C.), 1 µg/mL (≈ 1.6 µM); in [8], above 32 µg/mL. Besides, the minimal inhibitory concentration (MIC) in [9] was above 32 µg/mL; in [10], above 32 µg/mL; in data set [11], above 32 µg/mL; in [12], above 32 µg/mL; in data set [1], 2 µg/mL (≈ 3.21 µM). Moreover, the minimum bactericidal concentration (MBC) is 4 µg/mL (≈ 6.42 µM) in [3] (setting [15]); 8 µg/mL (≈ 12.8 µM) in data set [4] (setting [15]); 4 µg/mL (≈ 6.42 µM) in data set [5] (setting [15]); 8 µg/mL (≈ 12.8 µM) in data set [6] (setting [15]); 8 µg/mL (≈ 12.8 µM) in [7] (setting [15]). The IC50 in data set [13] fell in the range of 50 to 100 µM. Further, in data set [2], the “polyketide chain resulting from alkaline hydrolysis of the ester linkage, detection by LC-MS” value was “could also be detected by LC-MS”. For the same compound, the “chemical stability (comparison)” value in data set [2] (alkaline hydrolysis) was “greater chemical stability than enacyloxin”.
As to C-18 deschloro-enacyloxin, the MIC in data set [14] was above 32 µg/mL.

One may read the MIC as the least concentration at which growth counts as inhibited. As usually defined, the MBC is the lowest tested concentration that kills the bacteria rather than only halting them. By IC50 is commonly meant the midpoint of a concentration-inhibition curve. Low values mean greater potency, high ones weaker potency.
